Reference: patent US9873696B2, “Neprilysin inhibitors” (THERAVANCE BIOPHARMA R&D IP, LLC, priority 2010, dated 2018)

Biological target: T1, human NEP (Homo sapiens, UniProt P08473)
T1 construct: purchased R&D Systems, Minneapolis, Minn; 1182-ZN
Assay: In vitro enzyme inhibition assay at human NEP (Assay 1)
Type: biochemical
Conditions: recombinant enzyme, fluorogenic peptide substrate, 37° C.
How it was run: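 Recombinant enzyme preincubated with compound 30 min at 37 °C, then 10 μM Mca-D-Arg-Arg-Leu-Dap-(Dnp)-OH added in 50 mM HEPES pH 7.5, 100 mM NaCl, 0.01% Tween-20, 10 μM ZnSO4; stopped after 20 min with acetic acid. Fluorescence read at 320/405 nm; Ki from nonlinear fit of v=v0/[1+(I/K′)], reported as pKi.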

T1 sequence (P08473 whole entry): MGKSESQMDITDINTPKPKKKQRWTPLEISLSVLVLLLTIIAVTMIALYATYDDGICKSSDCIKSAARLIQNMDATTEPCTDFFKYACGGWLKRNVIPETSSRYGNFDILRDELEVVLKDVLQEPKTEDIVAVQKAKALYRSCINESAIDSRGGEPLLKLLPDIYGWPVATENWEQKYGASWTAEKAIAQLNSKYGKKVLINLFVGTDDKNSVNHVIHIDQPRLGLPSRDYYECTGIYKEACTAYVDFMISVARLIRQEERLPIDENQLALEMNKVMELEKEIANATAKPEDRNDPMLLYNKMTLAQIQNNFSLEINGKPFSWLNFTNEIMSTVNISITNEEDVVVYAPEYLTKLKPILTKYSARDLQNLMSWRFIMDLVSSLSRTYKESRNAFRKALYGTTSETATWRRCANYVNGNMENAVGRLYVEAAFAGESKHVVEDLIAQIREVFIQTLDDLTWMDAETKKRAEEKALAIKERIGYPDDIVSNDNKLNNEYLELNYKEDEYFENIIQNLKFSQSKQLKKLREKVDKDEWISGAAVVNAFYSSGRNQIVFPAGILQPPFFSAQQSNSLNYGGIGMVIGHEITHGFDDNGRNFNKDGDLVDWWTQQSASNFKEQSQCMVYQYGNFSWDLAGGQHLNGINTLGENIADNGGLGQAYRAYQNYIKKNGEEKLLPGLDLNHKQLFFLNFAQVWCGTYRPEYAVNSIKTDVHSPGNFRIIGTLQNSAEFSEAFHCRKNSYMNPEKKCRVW

Compound | Ki [nM]
O=C(NN(Cc1ccc(-c2cc(F)ccc2O)cc1)C[C@H](O)C(=O)O)c1cc(O)no1 [Example 8-5, (S)-3-[N-(5′-Fluoro-2′-hydroxy-biphenyl-4-ylmethyl)-N′-(3-hydroxy-isoxazole-5-carbonyl)-hydrazino]-2-hydroxy-propionic acid] | 1.26 to 10
O=C(NN(Cc1ccc(-c2cc(Cl)ccc2O)cc1)C[C@H](O)C(=O)O)c1cc(O)no1 [Example 8-6, (S)-3-[N-(5′-Chloro-2′-hydroxy-biphenyl-4-ylmethyl)-N′-(3-hydroxy-isoxazole-5-carbonyl)-hydrazino]-2-hydroxy-propionic acid] | 1.26 to 10
O=C(NN(Cc1ccc(-c2cc(Cl)ccc2F)cc1)C[C@@H](O)C(=O)O)c1cc(-c2cccc(F)c2)no1 [Example 8-13, (R)-3-{N-(5′-Chloro-2′-fluoro-biphenyl-4-ylmethyl)-N′-[3-(3-fluoro-phenyl)-isoxazole-5-carbonyl]-hydrazino}-2-hydroxy-propionic acid] | ≤ 1
O=C(NN(Cc1ccc(-c2cc(Cl)ccc2F)cc1)C[C@@H](O)C(=O)O)c1cc(-c2cccc(Cl)c2)no1 [Example 8-16, (R)-3-{N-(5′-Chloro-2′-fluoro-biphenyl-4-ylmethyl)-N′-[3-(3-chloro-phenyl)-isoxazole-5-carbonyl]-hydrazino}-2-hydroxy-propionic acid] | ≤ 1
Cc1cc(Cl)cc(-c2ccc(CN(C[C@H](O)C(=O)O)NC(=O)c3cc(O)no3)cc2)c1F [Example 8-23, (S)-3-[N-(5′-Chloro-2′-fluoro-3′-methyl-biphenyl-4-ylmethyl)-N′-(3-hydroxy-isoxazole-5-carbonyl)-hydrazino]-2-hydroxy-propionic acid] | 1.26 to 10
O=C(NN(Cc1ccc(-c2cc(F)cc(F)c2)cc1)C[C@H](O)C(=O)O)c1cc(O)no1 [Example 8-26, (S)-3-[N-(3′,5′-Difluoro-biphenyl-4-ylmethyl)-N′-(3-hydroxy-isoxazole-5-carbonyl)-hydrazino]-2-hydroxy-propionic acid] | 12.6 to 100
O=C(NN(Cc1ccc(-c2cc(Cl)ccc2F)cc1)C[C@@H](O)C(=O)O)c1cc(Cl)no1 [Example 8-29, (R)-3-[N-(5′-Chloro-2′-fluoro-biphenyl-4-ylmethyl)-N′-(3-chloro-isoxazole-5-carbonyl)-hydrazino]-2-hydroxy-propionic acid] | 1.26 to 10
CC(C)Cc1cc(C(=O)NN(Cc2ccc(-c3cc(Cl)ccc3F)cc2)C[C@@H](O)C(=O)O)on1 [Example 8-30, (R)-3-[N-(5′-Chloro-2′-fluoro-biphenyl-4-ylmethyl)-N′-(3-isobutyl-isoxazole-5-carbonyl)-hydrazino]-2-hydroxy-propionic acid] | ≤ 1
CC(C)c1cc(C(=O)NN(Cc2ccc(-c3cc(Cl)ccc3F)cc2)C[C@@H](O)C(=O)O)on1 [Example 8-32, (R)-3-[N-(5′-Chloro-2′-fluoro-biphenyl-4-ylmethyl)-N′-(3-isopropyl-isoxazole-5-carbonyl)-hydrazino]-2-hydroxy-propionic acid] | ≤ 1
CC(C)(C)c1cc(C(=O)NN(Cc2ccc(-c3cc(Cl)ccc3F)cc2)C[C@@H](O)C(=O)O)on1 [Example 8-33, (R)-3-[N′-(3-tert-Butyl-isoxazole-5-carbonyl)-N-(5′-chloro-2′-fluoro-biphenyl-4-ylmethyl)-hydrazino]-2-hydroxy-propionic acid] | 1.26 to 10
CN(C)C(=O)c1cc(C(=O)NN(Cc2ccc(-c3cc(Cl)ccc3F)cc2)C[C@@H](O)C(=O)O)[nH]n1 [Example 8-35, (R)-3-[N-(5′-Chloro-2′-fluoro-biphenyl-4-ylmethyl)-N′-(5-dimethylcarbamoyl-2H-pyrazole-3-carbonyl)-hydrazino]-2-hydroxy-propionic acid] | ≤ 1
O=C(NN(Cc1ccc(-c2cc(Cl)ccc2F)cc1)C[C@@H](O)C(=O)O)c1cc(-c2ccccc2O)n[nH]1 [Example 8-38, (R)-3-{N-(5′-Chloro-2′-fluoro-biphenyl-4-ylmethyl)-N′-[5-(2-hydroxy-phenyl)-2H-pyrazole-3-carbonyl]-hydrazino}-2-hydroxy-propionic acid] | ≤ 1

More lines, now with the values ahead:

Ki [nM] | Compound
1.26 to 10 | O=C(NN(Cc1ccc(-c2cccc(Cl)c2O)cc1)C[C@@H](O)C(=O)O)c1cc(O)no1 [Example 8-7, (R)-3-[N-(3′-Chloro-2′-hydroxy-biphenyl-4-ylmethyl)-N′-(3-hydroxy-isoxazole-5-carbonyl)-hydrazino]-2-hydroxy-propionic acid]
≤ 1 | O=C(NN(Cc1ccc(-c2cc(Cl)ccc2F)cc1)C[C@@H](O)C(=O)O)c1cc(O)no1 [Example 8-8, (R)-3-[N-(5′-Chloro-2′-fluoro-biphenyl-4-ylmethyl)-N′-(3-hydroxy-isoxazole-5-carbonyl)-hydrazino]-2-hydroxy-propionic acid]
≤ 1 | COc1cc(C(=O)NN(Cc2ccc(-c3cc(Cl)ccc3F)cc2)C[C@@H](O)C(=O)O)on1 [Example 8-9, (R)-3-[N-(5′-Chloro-2′-fluoro-biphenyl-4-ylmethyl)-N′-(3-methoxy-isoxazole-5-carbonyl)-hydrazino]-2-hydroxy-propionic acid]
≤ 1 | CCc1cc(C(=O)NN(Cc2ccc(-c3cc(Cl)ccc3F)cc2)C[C@@H](O)C(=O)O)on1 [Example 8-14, (R)-3-[N-(5′-Chloro-2′-fluoro-biphenyl-4-ylmethyl)-N′-(3-ethyl-isoxazole-5-carbonyl)-hydrazino]-2-hydroxy-propionic acid]
≤ 1 | COc1ccccc1-c1cc(C(=O)NN(Cc2ccc(-c3cc(Cl)ccc3F)cc2)C[C@@H](O)C(=O)O)on1 [Example 8-15, (R)-3-{N-(5′-Chloro-2′-fluoro-biphenyl-4-ylmethyl)-N′-[3-(2-methoxy-phenyl)-isoxazole-5-carbonyl]-hydrazino}-2-hydroxy-propionic acid]
≤ 1 | O=C(NN(Cc1ccc(-c2cc(Cl)ccc2F)cc1)C[C@@H](O)C(=O)O)c1cc(-c2ccccc2Cl)no1 [Example 8-17, (R)-3-{N-(5′-Chloro-2′-fluoro-biphenyl-4-ylmethyl)-N′-[3-(2-chloro-phenyl)-isoxazole-5-carbonyl]-hydrazino}-2-hydroxy-propionic acid]
≤ 1 | O=C(NN(Cc1ccc(-c2cc(Cl)ccc2F)cc1)C[C@@H](O)C(=O)O)c1cc(-c2ccccc2F)no1 [Example 8-18, (R)-3-{N-(5′-Chloro-2′-fluoro-biphenyl-4-ylmethyl)-N′-[3-(2-fluoro-phenyl)-isoxazole-5-carbonyl]-hydrazino}-2-hydroxy-propionic acid]
1.26 to 10 | O=C(NN(Cc1ccc(-c2cccc(Cl)c2F)cc1)C[C@@H](O)C(=O)O)c1cc(O)no1 [Example 8-21, (R)-3-[N-(3′-Chloro-2′-fluoro-biphenyl-4-ylmethyl)-N′-(3-hydroxy-isoxazole-5-carbonyl)-hydrazino]-2-hydroxy-propionic acid]
≤ 1 | O=C(NN(Cc1ccc(-c2cc(Cl)ccc2Cl)cc1)C[C@H](O)C(=O)O)c1cc(O)no1 [Example 8-22, (S)-3-[N-(2′,5′-Dichloro-biphenyl-4-ylmethyl)-N′-(3-hydroxy-isoxazole-5-carbonyl)-hydrazino]-2-hydroxy-propionic acid]
1.26 to 10 | O=C(NN(Cc1ccc(-c2cc(F)cc(Cl)c2)cc1)C[C@H](O)C(=O)O)c1cc(O)no1 [Example 8-24, (S)-3-[N-(5′-Chloro-3′-fluoro-biphenyl-4-ylmethyl)-N′-(3-hydroxy-isoxazole-5-carbonyl)-hydrazino]-2-hydroxy-propionic acid]
≤ 1 | O=C(NN(Cc1ccc(-c2cc(Cl)cc(Cl)c2)cc1)C[C@@H](O)C(=O)O)c1cc(O)no1 [Example 8-25, (R)-3-[N-(3′,5′-Dichloro-biphenyl-4-ylmethyl)-N′-(3-hydroxy-isoxazole-5-carbonyl)-hydrazino]-2-hydroxy-propionic acid]
≤ 1 | O=C(NN(Cc1ccc(-c2cc(O)cc(Cl)c2)cc1)C[C@H](O)C(=O)O)c1cc(O)no1 [Example 8-27, (S)-3-[N-(5′-Chloro-3′-hydroxy-biphenyl-4-ylmethyl)-N′-(3-hydroxy-isoxazole-5-carbonyl)-hydrazino]-2-hydroxy-propionic acid]
12.6 to 100 | Cc1c(Cl)cc(Cl)cc1-c1ccc(CN(C[C@H](O)C(=O)O)NC(=O)c2cc(O)no2)cc1 [Example 8-28, (S)-3-[N-(3′,5′-Dichloro-2′-methyl-biphenyl-4-ylmethyl)-N′-(3-hydroxy-isoxazole-5-carbonyl)-hydrazino]-2-hydroxy-propionic acid]
≤ 1 | CCCc1cc(C(=O)NN(Cc2ccc(-c3cc(Cl)ccc3F)cc2)C[C@@H](O)C(=O)O)on1 [Example 8-31, (R)-3-[N-(5′-Chloro-2′-fluoro-biphenyl-4-ylmethyl)-N′-(3-propyl-isoxazole-5-carbonyl)-hydrazino]-2-hydroxy-propionic acid]
1.26 to 10 | O=C(NN(Cc1ccc(-c2cc(Cl)ccc2F)cc1)C[C@@H](O)C(=O)O)c1cc(-c2cccnc2)on1 [Example 8-34, (R)-3-[N-(5′-Chloro-2′-fluoro-biphenyl-4-ylmethyl)-N′-(5-pyridin-3-yl-isoxazole-3-carbonyl)-hydrazino]-2-hydroxy-propionic acid]
≤ 1 | O=C(NN(Cc1ccc(-c2cc(Cl)ccc2F)cc1)C[C@@H](O)C(=O)O)c1cc(-c2ccccn2)n[nH]1 [Example 8-36, (R)-3-[N-(5′-Chloro-2′-fluoro-biphenyl-4-ylmethyl)-N′-(5-pyridin-2-yl-2H-pyrazole-3-carbonyl)-hydrazino]-2-hydroxy-propionic acid]
≤ 1 | COc1ccccc1-c1cc(C(=O)NN(Cc2ccc(-c3cc(Cl)ccc3F)cc2)C[C@@H](O)C(=O)O)[nH]n1 [Example 8-39, (R)-3-{N-(5′-Chloro-2′-fluoro-biphenyl-4-ylmethyl)-N′-[5-(2-methoxy-phenyl)-2H-pyrazole-3-carbonyl]-hydrazino}-2-hydroxy-propionic acid]
